Like-named read-outs stand apart in the source and are kept apart here. *1 amine or outer side, *2 acyl side, *3 side chain or, on linkers, in order; H or OH if unused. Where a SMILES comes first, the peptide text is derived from it. Side-chain parts run from the residue outwards. [ ]: non-standard residue; d: D form. The star is where a group is joined. αMePhe(2-F) = C[C@](N)(Cc1ccccc1F)C(=O)O; γGlu = O=C(O)[C@H](CCC(=O)[*:2])N[*:1]; C14 diacid = O=C(O)CCCCCCCCCCCCC(=O)*; αMeY = C[C@](N)(Cc1ccc(O)cc1)C(=O)O; αMeL = CC(C)C[C@](C)(N)C(=O)O; Orn = NCCC[C@H](N)C(=O)O; AEEA = NCCOCCOCC(=O)O; Aib = CC(C)(N)C(=O)O

Common to all, as to format: cell-based
For one experiment, the target named is T1, hGCGR (Homo sapiens, UniProt P47871).
T1 construct: expressed in transfected cells
Briefly: Functional cAMP formation (HTRF) in HEK-293 clonal cells expressing hGCGR, 0.1% bovine casein, without or with 1.0% human serum albumin. An outline of the steps:
(§1)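 Cells were stimulated with peptide for 30 min at 37° C, then intracellular cAMP was measured by competitive HTRF (665/620 nm ratio) and converted to nM using a cAMP standard curve. Relative EC50 and Emax came from four-parameter logistic fits of percent maximal response against peptide concentration.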

The target of a further experiment is T2, hGIPR (Homo sapiens, UniProt P48546).
T2 construct: expressed in transfected cells
T2 sequence (P48546 22-466): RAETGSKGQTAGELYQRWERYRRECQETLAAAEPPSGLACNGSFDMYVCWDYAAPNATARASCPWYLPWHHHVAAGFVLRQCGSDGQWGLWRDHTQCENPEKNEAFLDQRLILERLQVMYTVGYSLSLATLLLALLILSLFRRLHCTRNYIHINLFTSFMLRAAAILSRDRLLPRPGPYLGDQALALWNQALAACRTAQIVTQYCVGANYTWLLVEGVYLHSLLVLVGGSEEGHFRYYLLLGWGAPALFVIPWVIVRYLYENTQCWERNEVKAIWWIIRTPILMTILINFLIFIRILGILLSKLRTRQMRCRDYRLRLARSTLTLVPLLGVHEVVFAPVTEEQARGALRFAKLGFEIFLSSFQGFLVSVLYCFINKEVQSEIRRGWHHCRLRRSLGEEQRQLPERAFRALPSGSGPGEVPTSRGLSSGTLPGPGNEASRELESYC
Briefly: Functional cAMP formation (HTRF) in HEK-293 clonal cells expressing hGIPR, 0.1% bovine casein, without or with 1.0% human serum albumin. Particulars: for EC50: cAMP, 0.1% bovine casein (no human serum albumin), geometric mean. The essentials:
as §1

The target in a further experiment is hGLP-1R (Homo sapiens, UniProt P43220). Briefly: Functional cAMP formation (HTRF) in HEK-293 clonal cells expressing hGLP-1R, 0.1% bovine casein, without or with 1.0% human serum albumin. Also on record: expressed in transfected cells. The settings on record: for EC50: geometric mean; for Emax: read-out: hGLP-1R Emax, % ± SEM. An outline of the steps: as §1
[1] abbreviates: 0.1% bovine casein and 1.0% human serum albumin, 37° C., geometric mean, read-out: hGCGR EC50, nM (SEM, n).
Setting [2] is: HEK293, 0.1% bovine casein and 1.0% human serum albumin, 37° C., percent of maximal response to GIP(1-42)NH2, read-out: hGIPR Emax, % ± SEM.
[3] abbreviates: HEK293, 0.1% bovine casein and 1.0% human serum albumin, 37° C., percent of maximal response to GLP-1(7-36)NH2.
The mark [4] stands for this setting: cAMP, incubated at 37° C., 0.1% bovine casein (no human serum albumin), geometric mean, read-out: hGCGR EC50, nM (SEM, n).
Where [5] appears, read: incubated at 37° C., read-out: hGIPR EC50, nM (SEM, n).

T1 sequence (P47871 26-477): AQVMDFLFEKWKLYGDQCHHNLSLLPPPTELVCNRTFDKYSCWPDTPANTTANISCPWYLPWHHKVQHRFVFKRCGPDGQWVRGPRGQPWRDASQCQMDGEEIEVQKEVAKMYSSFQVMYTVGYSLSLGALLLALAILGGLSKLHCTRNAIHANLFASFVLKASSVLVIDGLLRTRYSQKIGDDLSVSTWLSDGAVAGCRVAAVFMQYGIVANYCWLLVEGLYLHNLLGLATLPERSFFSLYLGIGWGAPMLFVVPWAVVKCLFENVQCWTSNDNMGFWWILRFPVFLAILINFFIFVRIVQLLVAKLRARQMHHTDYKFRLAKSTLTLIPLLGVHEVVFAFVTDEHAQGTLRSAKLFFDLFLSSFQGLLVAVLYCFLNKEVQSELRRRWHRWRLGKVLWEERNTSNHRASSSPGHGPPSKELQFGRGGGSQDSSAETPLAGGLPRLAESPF
Sequence of hGLP-1R (P43220 24-463): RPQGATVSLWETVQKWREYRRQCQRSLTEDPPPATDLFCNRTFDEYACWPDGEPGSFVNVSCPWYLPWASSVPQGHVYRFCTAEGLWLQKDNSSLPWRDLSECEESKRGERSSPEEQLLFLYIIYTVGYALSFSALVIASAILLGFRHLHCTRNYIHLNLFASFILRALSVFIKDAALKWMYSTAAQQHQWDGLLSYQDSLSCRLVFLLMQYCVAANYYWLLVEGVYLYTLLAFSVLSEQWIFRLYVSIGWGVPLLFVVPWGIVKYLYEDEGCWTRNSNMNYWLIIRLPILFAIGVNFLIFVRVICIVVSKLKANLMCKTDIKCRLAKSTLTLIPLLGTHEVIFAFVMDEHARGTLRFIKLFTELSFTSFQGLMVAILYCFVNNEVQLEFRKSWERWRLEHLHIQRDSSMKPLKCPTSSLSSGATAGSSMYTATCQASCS

For the compound `CC[C@H](C)[C@H](NC(=O)[C@H](CC(C)C)NC(=O)[C@](C)(Cc1ccc(O)cc1)NC(=O)[C@@H](CCC(=O)O)NC(=O)[C@@H](NC(=O)[C@H](Cc1ccccc1)NC(=O)[C@H](CCCCNC(=O)COCCOCCNC(=O)CC[C@H](NC(=O)CCCCCCCCCOc1ccc(C(=O)O)cc1)C(=O)O)NC(=O)C(C)(C)NC(=O)[C@H](CCC(N)=O)NC(=O)[C@H](C)NC(=O)[C@H](CCCCNC(=O)COCCOCCNC(=O)CC[C@H](NC(=O)CCCCCCCCCOc1ccc(C(=O)O)cc1)C(=O)O)NC(=O)[C@H](CCCN)NC(=O)[C@H](CC(=O)O)NC(=O)[C@H](CC(C)C)NC(=O)[C@](C)(CC(C)C)NC(=O)[C@@H](NC(=O)C(C)(C)NC(=O)[C@H](Cc1ccc(O)cc1)NC(=O)[C@H](CC(=O)O)NC(=O)[C@H](CO)NC(=O)[C@@H](NC(=O)[C@](C)(Cc1ccccc1F)NC(=O)[C@@H](NC(=O)CNC(=O)[C@H](CCC(=O)O)NC(=O)C(C)(C)NC(=O)[C@@H](N)Cc1ccc(O)cc1)[C@@H](C)O)[C@@H](C)O)[C@@H](C)CC)[C@@H](C)CC)C(=O)N[C@@H](CCC(=O)O)C(=O)NCC(=O)NCC(=O)N1CCC[C@H]1C(=O)N[C@@H](CO)C(=O)N[C@@H](CO)C(=O)NCC(=O)N[C@@H](C)C(=O)N1CCC[C@H]1C(=O)N1CCC[C@H]1C(=O)N1CCC[C@H]1C(=O)N[C@@H](CO)C(N)=O` [Example 372], the EC50 at hGCGR (hGCGR EC50, nM (SEM, n), cAMP, 37° C., 0.1% bovine casein (no human serum albumin), geometric mean) is > 9950 nM; at hGCGR (hGCGR EC50, nM (SEM, n), cAMP, 37° C., 0.1% bovine casein and 1.0% human serum albumin, geometric mean (SEM, n)), > 9950 nM; at hGIPR (hGIPR EC50, nM (SEM, n), 37° C.), 0.0112 nM; on hGLP-1R (hGLP-1R EC50, nM (SEM, n), cAMP, 37° C., 0.1% bovine casein (no human serum albumin)), 0.291 nM. Moreover, the Emax on hGIPR (HEK293, read-out: hGIPR Emax, % ± SEM, cAMP, 37° C., 0.1% bovine casein and 1.0% human serum albumin, percent of maximal response to GIP(1-42)NH2) came to 90.6%; at hGIPR (HEK293, read-out: hGIPR Emax, % ± SEM, cAMP, 37° C., 0.1% bovine casein, percent of maximal response to GIP(1-42)NH2, arithmetic mean), 97.3%.

In the case of `CCCC[C@H](NC(=O)[C@H](CC(=O)O)NC(=O)[C@H](CO)NC(=O)[C@@H](NC(=O)[C@](C)(Cc1ccccc1F)NC(=O)[C@@H](NC(=O)CNC(=O)[C@H](CCC(=O)O)NC(=O)C(C)(C)NC(=O)[C@@H](N)Cc1ccc(O)cc1)[C@@H](C)O)[C@@H](C)O)C(=O)N[C@@H](CO)C(=O)N[C@H](C(=O)N[C@@](C)(CC(C)C)C(=O)N[C@@H](CC(C)C)C(=O)N[C@@H](CC(=O)O)C(=O)N[C@@H](CCCN)C(=O)N[C@@H](CCCCNC(=O)COCCOCCNC(=O)COCCOCCNC(=O)CCCCCCCCCCCCC(=O)O)C(=O)N[C@@H](C)C(=O)N[C@@H](CCC(N)=O)C(=O)NC(C)(C)C(=O)N[C@@H](CCCCNC(=O)COCCOCCNC(=O)COCCOCCNC(=O)CCCCCCCCCCCCC(=O)O)C(=O)N[C@@H](Cc1ccccc1)C(=O)N[C@H](C(=O)N[C@H](CCC(=O)O)C(=O)N[C@@](C)(Cc1ccc(O)cc1)C(=O)N[C@@H](CC(C)C)C(=O)N[C@H](C(=O)N[C@@H](CCC(=O)O)C(=O)NCC(=O)NCC(=O)N1CCC[C@H]1C(=O)N[C@@H](CO)C(=O)N[C@@H](CO)C(=O)NCC(=O)N[C@@H](C)C(=O)N1CCC[C@H]1C(=O)N1CCC[C@H]1C(=O)N1CCC[C@H]1C(=O)N[C@@H](CO)C(N)=O)[C@@H](C)CC)[C@@H](C)CC)[C@@H](C)CC` [Example 271], the EC50 on hGCGR (setting [1]) was > 9950 nM; at hGCGR (cAMP, 37° C., 0.1% bovine casein (no human serum albumin), geometric mean, read-out: hGCGR EC50, nM (SEM, n)), > 9950 nM; on hGIPR (37° C., read-out: hGIPR EC50, nM (SEM, n)), 0.0186 nM; on hGLP-1R (0.1% bovine casein and 1.0% human serum albumin, 37° C., read-out: hGLP-1R EC50, nM (SEM, n)), 10.2 nM. The Emax on hGIPR (setting [2]) was 97.3%; at hGLP-1R (setting [3]), 122%.

Regarding `CC[C@H](C)[C@H](NC(=O)[C@H](CCCN)NC(=O)[C@H](CC(=O)O)NC(=O)[C@H](CC(C)C)NC(=O)[C@](C)(CC(C)C)NC(=O)[C@@H](NC(=O)C(C)(C)NC(=O)[C@H](Cc1ccc(O)cc1)NC(=O)[C@H](CC(=O)O)NC(=O)[C@H](CO)NC(=O)[C@@H](NC(=O)[C@](C)(Cc1ccccc1F)NC(=O)[C@@H](NC(=O)CNC(=O)[C@H](CCC(=O)O)NC(=O)C(C)(C)NC(=O)[C@@H](N)Cc1ccc(O)cc1)[C@@H](C)O)[C@@H](C)O)[C@@H](C)CC)C(=O)N[C@@H](C)C(=O)N[C@@H](CCC(N)=O)C(=O)NC(C)(C)C(=O)N[C@@H](CCCCNC(=O)COCCOCCNC(=O)COCCOCCNC(=O)CC[C@H](NC(=O)CCCCCCCCCCCCC(=O)O)C(=O)O)C(=O)N[C@@H](Cc1ccccc1)C(=O)N[C@H](C(=O)N[C@H](CCC(=O)O)C(=O)N[C@@](C)(Cc1ccc(O)cc1)C(=O)N[C@@H](CC(C)C)C(=O)N[C@H](C(=O)N[C@@H](CCC(=O)O)C(=O)NCC(=O)NCC(=O)N1CCC[C@H]1C(=O)N[C@@H](CO)C(=O)N[C@@H](CO)C(=O)NCC(=O)N[C@@H](C)C(=O)N1CCC[C@H]1C(=O)N1CCC[C@H]1C(=O)N1CCC[C@H]1C(=O)N[C@@H](CO)C(=O)N[C@@H](CCCCNC(=O)COCCOCCNC(=O)COCCOCCNC(=O)CC[C@H](NC(=O)CCCCCCCCCCCCC(=O)O)C(=O)O)C(N)=O)[C@@H](C)CC)[C@@H](C)CC` [Example 235] (H-Y[Aib]EGT[αMePhe(2-F)]TSDY[Aib]I[αMeL]LD[Orn]IAQ[Aib]K([AEEA-AEEA-γGlu-C14 diacid])FI[dE][αMeY]LIEGGPSSGAPPPSK([AEEA-AEEA-γGlu-C14 diacid])-NH2; N-terminus assumed), the EC50 at hGCGR (setting [1]) is > 9950 nM; at hGCGR (setting [4]), > 9950 nM; at hGIPR (setting [5]), 0.0168 nM; on hGLP-1R (cAMP, incubated at 37° C., 0.1% bovine casein (no human serum albumin), read-out: hGLP-1R EC50, nM (SEM, n)) it was 0.295 nM. The values for the Emax on hGIPR (setting [2]) and at hGLP-1R (setting [3]) were 92.2% and 152%, respectively.

In the case of `CC[C@H](C)[C@H](NC(=O)[C@H](CCCN)NC(=O)[C@H](CC(=O)O)NC(=O)[C@H](CC(C)C)NC(=O)[C@](C)(CC(C)C)NC(=O)[C@@H](NC(=O)[C@H](CO)NC(=O)[C@H](CCCCNC(=O)COCCOCCNC(=O)COCCOCCNC(=O)CC[C@H](NC(=O)CCCCCCCCCCCCC(=O)O)C(=O)O)NC(=O)[C@H](CC(=O)O)NC(=O)[C@H](CO)NC(=O)[C@@H](NC(=O)[C@](C)(Cc1ccccc1F)NC(=O)[C@@H](NC(=O)CNC(=O)[C@H](CCC(=O)O)NC(=O)C(C)(C)NC(=O)[C@@H](N)Cc1ccc(O)cc1)[C@@H](C)O)[C@@H](C)O)[C@@H](C)CC)C(=O)N[C@@H](C)C(=O)N[C@@H](CCC(N)=O)C(=O)NC(C)(C)C(=O)N[C@@H](CCC(=O)O)C(=O)N[C@@H](Cc1ccccc1)C(=O)N[C@H](C(=O)N[C@H](CCC(=O)O)C(=O)N[C@@](C)(Cc1ccc(O)cc1)C(=O)N[C@@H](CC(C)C)C(=O)N[C@H](C(=O)N[C@@H](CCC(=O)O)C(=O)NCC(=O)NCC(=O)N[C@@H](CCCCNC(=O)COCCOCCNC(=O)COCCOCCNC(=O)CC[C@H](NC(=O)CCCCCCCCCCCCC(=O)O)C(=O)O)C(=O)N[C@@H](CO)C(=O)N[C@@H](CO)C(=O)NCC(=O)N[C@@H](C)C(=O)N1CCC[C@H]1C(=O)N1CCC[C@H]1C(=O)N1CCC[C@H]1C(=O)N[C@@H](CO)C(N)=O)[C@@H](C)CC)[C@@H](C)CC` [Example 108] (H-Y[Aib]EGT[αMePhe(2-F)]TSDK([AEEA-AEEA-γGlu-C14 diacid])SI[αMeL]LD[Orn]IAQ[Aib]EFI[dE][αMeY]LIEGGK([AEEA-AEEA-γGlu-C14 diacid])SSGAPPPS-NH2; N-terminus assumed), the EC50 on hGCGR (setting [4]) is > 9950 nM; at hGIPR (setting [5]), 0.0249 nM. The Emax was found to be 85.2% on hGIPR (HEK293, percent of maximal response to GIP(1-42)NH2, 37° C., 0.1% bovine casein, arithmetic mean, read-out: hGIPR Emax, % ± SEM) and 97.6% on hGLP-1R (HEK293, percent of maximal response to GLP-1(7-36)NH2, 37° C., 0.1% bovine casein, arithmetic mean).

The values above are taken from patent publication US20230265151A1, “GIP/GLP1 CO-AGONIST COMPOUNDS” (priority 2020, published 2023).
